Source: patent US20220249590A1, “EFFICACY OF GARLIC THERAPY IN CONTROLLING INFLAMMATORY CYTOKINES AND CARTILAGE DEGRADATION IN KNEE OSTEOARTHRITIS AND IMPROVING QUALITY OF LIFE” (priority 2021, published 2022)

Columns and labels:
lupus mice = details: cited from earlier work
glutathione peroxidase [1] = details: mice, after intake of diet rich in selenium; cited from earlier work
mice knee osteoarthritis = details: after intake of diet rich in selenium; cited from earlier work
[2] = system: rheumatoid arthritis patients; details: selenium intake; cited from earlier work
adjuvant arthritis = adjuvant arthritis in rats; cited from earlier work
[3] = system: knee osteoarthritis patients; assay: Study II: garlic versus glucosamine sulphate, clinical manifestations; format: in vivo, human
Procedure: In the second study, I had compared the effect of garlic versus glucosamine on cartilage degeneration in knee osteoarthritis patients. I have chosen glucosamine sulfate to be the comparing drug due to its well known chondroprotective properties and it has been in the market for a while to control the symptoms of knee osteoarthritis.
(§1) Garlic group receive 900 mg of garlic capsules daily for 8 weeks. The glucosamine group received 1500 mg glucosamine sulfate daily for 8 weeks. As regard baseline affection of knee in both groups. The garlic group has bilateral knee OA in 100% of patients and significant knee deformity compared to glucosamine group who were having only Bilateral knee affection in 70% of patients.

collagenase = assay: Study II: level of collagenase; format: in vivo, human; details: garlic capsules 900 mg daily or glucosamine sulfate 1500 mg daily, 8 weeks; no difference between the groups
Procedure: as §1

glutathione peroxidase [4] = assay: Study II: level of glutathione peroxidase; format: in vivo, human; details: garlic capsules 900 mg daily or glucosamine sulfate 1500 mg daily, 8 weeks; no difference between the groups
Procedure: as §1

MMP13 = assay: Study II: level of MMP13; format: in vivo, human; details: garlic capsules 900 mg daily or glucosamine sulfate 1500 mg daily, 8 weeks; no difference between the groups
Procedure: as §1

Compound	indices of inflammation (lupus mice)	expression of glutathione peroxidase in synovium (glutathione peroxidase [1])	mice knee osteoarthritis (mice knee osteoarthritis)	pain, swollen and tender joints numbers [2]	indices of inflammation (adjuvant arthritis)	body mass index, mean percent change ([3]; end of study, glucosamine group vs garlic group)	pain score ([3]; garlic capsules 900 mg daily or glucosamine sulfate 1500 mg daily, 8 weeks)	body mass index ([3]; garlic capsules 900 mg daily or glucosamine sulfate 1500 mg daily, 8 weeks, end of study vs baseline)	level of collagenase (collagenase)	level of glutathione peroxidase (glutathione peroxidase [4])	level of MMP13 (MMP13)
[Se] [selenium]	improved indices of inflammation	increased expression	significant reduction	reduction	improved indices of inflammation	–	–	–	–	–	–
N[C@H]1C(O)O[C@H](CO)[C@@H](O)[C@@H]1O.O=S(=O)(O)O (some centres unmarked) [glucosamine sulfate]	–	–	–	–	–	higher mean percent change than garlic group	significantly improved in both groups with no difference between groups	did not significantly change	significant reduction	significant reduction	significant reduction
